The values that follow come from ChEMBL document CHEMBL2218064, “Structure-activity relationship data for chemical series of antagonists of the P2X7 receptor (Supplementary Bioactivity Data for publication CHEMBL1157114)”.

The target in this test is T1, P2X purinoceptor 7 (Homo sapiens, UniProt Q99572).
T1 sequence (Q99572 whole entry): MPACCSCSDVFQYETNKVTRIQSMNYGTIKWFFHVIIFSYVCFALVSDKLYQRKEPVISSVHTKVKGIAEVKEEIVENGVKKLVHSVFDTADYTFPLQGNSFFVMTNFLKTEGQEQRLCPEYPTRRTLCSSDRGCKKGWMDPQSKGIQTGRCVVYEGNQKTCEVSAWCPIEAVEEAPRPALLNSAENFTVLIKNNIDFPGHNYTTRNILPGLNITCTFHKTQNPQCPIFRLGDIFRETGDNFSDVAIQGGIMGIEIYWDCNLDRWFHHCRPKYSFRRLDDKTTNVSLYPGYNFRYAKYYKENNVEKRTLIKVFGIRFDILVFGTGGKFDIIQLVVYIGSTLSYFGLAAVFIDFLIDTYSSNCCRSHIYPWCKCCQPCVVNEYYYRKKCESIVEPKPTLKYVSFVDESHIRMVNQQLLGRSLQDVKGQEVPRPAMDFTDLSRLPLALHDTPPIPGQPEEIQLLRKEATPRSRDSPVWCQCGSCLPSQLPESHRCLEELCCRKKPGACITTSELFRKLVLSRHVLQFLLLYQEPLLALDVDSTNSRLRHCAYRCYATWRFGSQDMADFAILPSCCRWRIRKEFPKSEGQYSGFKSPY
Kind of test: SUPPLEMENTARY: Inhibition of human P2X7 receptor assessed as inhibition of ethidium bromide accumulation. Same assay as CHEMBL1103860.

As a reminder, the IC50 is the concentration that inhibits the measured activity by half. Consider `O=C(NCc1ccc(Cl)cc1Cl)C1CC(=O)N(Cc2ccccc2)C1` (stereo not drawn), for which the IC50 is 0.158 µM. Turning to `CCN1C(=O)CC[C@@H]1C(=O)NCc1c(Cl)cccc1Cl`, the IC50 was 0.631 µM. Regarding `CC(C)CN1CC(C(=O)NCc2ccc(Cl)cc2Cl)CC1=O` (stereo not drawn), the IC50 is 0.0794 µM. Consider `CN1C(=O)CCC1(C)C(=O)NCc1ccc(Cl)cc1Cl` (stereo not drawn), for which the IC50 is 0.2 µM. For `CCN1C(=O)CC[C@@H]1C(=O)NCc1ccc(Cl)c(C(F)(F)F)c1` the value was 0.316 µM; for `CCN1C(=O)CC[C@@H]1C(=O)NCc1c(C)cccc1Cl`, 0.501 µM. With `Cc1cc(Cl)ccc1CNC(=O)[C@@H]1CCC(=O)N1C` the figure was 0.0251 µM. For `CN1C(=O)CC[C@H]1C(=O)NCc1ccc(F)cc1C(F)(F)F` the value was 0.1 µM; for `CN1C(=O)CC[C@H]1C(=O)NCc1cccc(Cl)c1Cl`, 0.0158 µM; for `CN1C(=O)CC[C@H]1C(=O)NCc1c(Cl)cccc1Cl`, 0.126 µM.

In the case of `Cc1c(Cl)cccc1CNC(=O)[C@@H]1CCC(=O)N1C`, the IC50 is 0.0158 µM. With `CN1C(=O)CC[C@H]1C(=O)NCc1cccc(C(F)(F)F)c1F` the figure was 0.0251 µM. With `CN1C(=O)CC[C@H]1C(=O)NCc1cccc(Cl)c1F` the figure was 0.126 µM; with `CCN1C(=O)c2ccccc2C1C(=O)NCc1ccc(Cl)cc1Cl` (stereo not drawn), 0.398 µM. For the compound `CCN1C(=O)c2ccccc2C1C(=O)NCc1cccc(C(F)(F)F)c1Cl` (stereo not drawn), the IC50 was 0.0794 µM. As to `CN1C(=O)c2ccccc2C1C(=O)NCc1ccc(Cl)cc1Cl` (stereo not drawn), the IC50 is 0.126 µM.

With `CN1C(=O)c2ccccc2C1C(=O)NCc1ccc(F)cc1Cl` (stereo not drawn), the IC50 is 0.316 µM. With `CN1C(=O)c2ccccc2C1C(=O)NCc1cccc(C(F)(F)F)c1Cl` (stereo not drawn) the figure was 0.0158 µM. With `CCN1C(=O)CCC1(C)C(=O)NCc1ccc(Cl)cc1Cl` (stereo not drawn) the figure was 0.1 µM; with `CC1(C(=O)NCc2ccc(Cl)cc2Cl)CCC(=O)N1C1CC1` (stereo not drawn), 0.01 µM. For `O=C(NCc1ccc(Cl)cc1Cl)C1CCC(=O)N1C1CC1` (stereo not drawn), the IC50 was 0.00316 µM.

With `CC(C)N1C(=O)CCC1(C)C(=O)NCc1ccc(Cl)cc1Cl` (stereo not drawn), the IC50 is 0.2 µM. With `CCN1C(=O)CC[C@@H]1C(=O)NCc1cccc(C(F)(F)F)c1F` the figure was 0.158 µM; with `CCN1C(=O)CC[C@@H]1C(=O)NCc1ccc(F)cc1C(F)(F)F`, 0.2 µM.

`CCN1C(=O)CC[C@@H]1C(=O)NCc1cccc(Cl)c1F`: the IC50 is 0.794 µM. Consider `CCN1C(=O)CC[C@@H]1C(=O)NCc1ccc(F)c(F)c1Cl`, for which the IC50 was 0.2 µM. For `CCN1C(=O)CC[C@@H]1C(=O)NCc1ccc(Cl)cc1C` the value was 0.126 µM; for `CN1C(=O)CC[C@@H]1C(=O)NCc1ccc(F)cc1C(F)(F)F`, 0.251 µM. With `CN1C(=O)CC[C@@H]1C(=O)NCc1cccc(Cl)c1Cl` the figure was 0.0631 µM.

`O=C(NCc1ccc(F)cc1Cl)C1CCC(=O)N1C1CC1` (stereo not drawn): the IC50 was 0.02 µM.

Take `O=C(NCc1ccc(F)cc1Cl)C1CC(=O)N(C2CC2)C1` (stereo not drawn): the IC50 is 0.501 µM. For `CN1C(=O)CC[C@@H]1C(=O)NCc1cccc(C(F)(F)F)c1Cl` the value was 0.0158 µM; for `Cc1c(Cl)cccc1CNC(=O)[C@H]1CCC(=O)N1C`, 0.1 µM; for `CC1=CC(=O)N(C2CC2)C1C(=O)NCc1ccc(Cl)cc1Cl` (stereo not drawn), 0.631 µM. `Cc1c(CNC(=O)[C@@H]2CCC(=O)N2C)cccc1C(F)(F)F`: the IC50 was 0.00316 µM. For `CN1C(=O)CC[C@H]1C(=O)NCc1ccc(F)cc1Br` the value was 0.0398 µM. For `CN1C(=O)CC[C@H]1C(=O)NCc1cccc(F)c1C(F)(F)F` the value was 0.2 µM; for `CCN1C(=O)CC[C@H]1C(=O)NCc1ccc(F)c(Cl)c1Cl`, 0.00316 µM. For `O=C(NCc1cccc(C(F)(F)F)c1Cl)C1CCC(=O)N1C1CC1` (stereo not drawn) the value was 0.00126 µM; for `CN1C(=O)CC[C@@H]1C(=O)NCc1cccc(C(F)(F)F)c1F`, 0.2 µM; for `Cc1cc(Cl)cc(Cl)c1CNC(=O)[C@@H]1CCC(=O)N1C`, 0.00126 µM. In the case of `CN1C(=O)CC[C@H]1C(=O)NCc1cccc2ccccc12`, the IC50 was 0.00158 µM. With `CN1C(=O)CC[C@H]1C(=O)NCc1ccc(F)c(F)c1Cl` the figure was 0.0398 µM.

As for `CCN1C(=O)C(C)(C)CC1C(=O)NCc1ccc(Cl)cc1Cl` (stereo not drawn), the IC50 is 0.0251 µM. Turning to `O=C(NCc1cccc(C(F)(F)F)c1Cl)[C@H]1CCC(=O)N1Cc1ccccc1`, the IC50 is 0.0316 µM.

`CC(C)(C)CN1C(=O)CC[C@H]1C(=O)NCc1cccc(C(F)(F)F)c1Cl`: the IC50 was 0.0251 µM. In the case of `O=C(NCc1cccc(C(F)(F)F)c1Cl)[C@H]1CCC(=O)N1C1CCCC1`, the IC50 is 0.1 µM.

Consider `CN1C(=O)CC(C)(C)C1C(=O)NCc1cccc(C(F)(F)F)c1Cl` (stereo not drawn), for which the IC50 was 0.1 µM. For `CCC(C)N1C(=O)CC[C@@H]1C(=O)NCc1cccc(C(F)(F)F)c1Cl` (stereo partly drawn) the value was 0.0631 µM.

On to `CN1CC(C(=O)NCc2cccc(C(F)(F)F)c2Cl)CC1=O` (stereo not drawn), for which the IC50 was 0.0631 µM.

With `O=C(NCc1cccc(C(F)(F)F)c1Cl)C1COCC(=O)N1Cc1ccccc1` (stereo not drawn), the IC50 was 0.251 µM.

As to `O=C(NCc1ccc(Cl)cc1Cl)C1COCC(=O)N1Cc1ccccc1` (stereo not drawn), the IC50 is 0.501 µM. For `O=C(NCc1ccc(F)cc1Cl)C1COCC(=O)N1Cc1ccccc1` (stereo not drawn) the value was 0.501 µM.

`CCN1C(=O)CC[C@H]1C(=O)NCc1cccc(C)c1C`: the IC50 is 0.1 µM. As for `CN1C(=O)CC[C@H]1C(=O)NCc1ccc(F)c(Cl)c1Cl`, the 50% inhibitory concentration (IC50) was 0.0126 µM.

For `CC(C)N1C(=O)CC[C@H]1C(=O)NCc1ccc(F)c(Cl)c1Cl`, the IC50 is 0.00501 µM. With `Cc1c(Cl)cccc1CNC(=O)[C@@H]1CCC(=O)N1C(C)C` the figure was 0.0158 µM; with `CC(C)N1C(=O)CC[C@H]1C(=O)NCc1cccc(C(F)(F)F)c1Cl`, 0.002 µM. As for `Cc1c(CNC(=O)[C@@H]2CCC(=O)N2C(C)C)cccc1C(F)(F)F`, the IC50 was 0.00398 µM. With `CC(C)N1C(=O)CC[C@H]1C(=O)NCc1cccc(Cl)c1Cl` the figure was 0.02 µM. Consider `CC(C)N1C(=O)CC[C@H]1C(=O)NCc1ccc(F)c(F)c1Cl`, for which the IC50 is 0.02 µM.

For `CC(C)N1C(=O)CC[C@H]1C(=O)NCc1ccc(Cl)cc1Cl`, the half-inhibitory concentration (IC50) was 0.00794 µM. For `CN1CC(C(=O)NCc2ccc(Cl)cc2Cl)CC1=O` (stereo not drawn) the value was 0.158 µM; for `CCN1CC(C(=O)NCc2ccc(Cl)cc2Cl)CC1=O` (stereo not drawn), 0.126 µM; for `CCN1CC(C(=O)NCc2cccc(C(F)(F)F)c2Cl)CC1=O` (stereo not drawn), 0.0501 µM. With `CC(C)CN1CC(C(=O)NCc2cccc(C(F)(F)F)c2Cl)CC1=O` (stereo not drawn) the figure was 0.0631 µM; with `O=C(NCc1ccc(Cl)cc1Cl)C1CC(=O)N(C2CC2)C1` (stereo not drawn), 0.126 µM; with `O=C(NCc1cccc(C(F)(F)F)c1Cl)C1CC(=O)N(C2CC2)C1` (stereo not drawn), 0.0316 µM. With `CN1C(=O)OC[C@@H]1C(=O)NCc1cccc(C(F)(F)F)c1Cl` the figure was 0.0501 µM; with `CCN1[C@H](C(=O)NCc2ccc(Cl)cc2Cl)CCCS1(=O)=O`, 0.2 µM; with `CCN1[C@H](C(=O)NCc2ccc(F)cc2Cl)CCCS1(=O)=O`, 0.631 µM. As for `CN1[C@H](C(=O)NCc2ccc(Cl)cc2Cl)CCCS1(=O)=O`, the IC50 was 0.251 µM.

Regarding `O=C(NCc1cccc(C(F)(F)F)c1Cl)C1CC(=O)N(Cc2ccccc2)C1` (stereo not drawn), the IC50 was 0.316 µM. For `Cc1c(Cl)cccc1CNC(=O)[C@@H]1CCC(=O)N1C1CCC1`, the IC50 is 0.0158 µM.

On to `O=C1C(=O)N(c2cccc3ccccc23)CCN1Cc1c(F)cccc1Cl`, for which the IC50 was 0.631 µM. With `O=C1C(=O)N(c2cccc3ccccc23)CCN1Cc1ccc(F)cc1Cl` the figure was 0.0631 µM; with `O=C(NCc1cccc(C(F)(F)F)c1Cl)[C@@H]1CCC(=O)N1C1CCC1`, 0.002 µM. With `O=C(NCc1ccc(Cl)cc1Cl)[C@@H]1CCC(=O)N1C1CCC1`, the IC50 was 0.00501 µM. For `O=C(NCc1ccc(F)c(F)c1Cl)[C@@H]1CCC(=O)N1C1CCC1` the value was 0.01 µM.

As for `O=C(NCc1cccc(Cl)c1Cl)[C@@H]1CCC(=O)N1C1CCC1`, the IC50 is 0.0126 µM. For `Cc1c(CNC(=O)[C@@H]2CCC(=O)N2C2CCC2)cccc1C(F)(F)F` the value was 0.00316 µM; for `CCN1[C@H](C(=O)NCc2ccc(F)c(F)c2F)CCCS1(=O)=O`, 0.631 µM.

On to `CC(C)CN1[C@H](C(=O)NCc2ccc(Cl)cc2Cl)CCS1(=O)=O`, for which the IC50 is 0.158 µM. With `CC(C)CN1[C@H](C(=O)NCc2ccc(F)cc2Cl)CCS1(=O)=O` the figure was 0.501 µM. On to `CN1C[C@@H](C(=O)NCc2ccc(F)c(F)c2Cl)N(C)C1=O`, for which the IC50 was 0.00316 µM. Consider `O=C(NCc1ccc(Cl)cc1Cl)[C@H]1CCC(=O)N1Cc1cccnc1`, for which the IC50 was 0.0631 µM. For `CCN1C(=O)CC[C@H]1C(=O)NCc1ccccc1C` the value was 0.794 µM; for `CCN1C(=O)CC[C@H]1C(=O)NCc1ccc(F)c(F)c1Cl`, 0.00794 µM. For `CCN1C(=O)OC[C@@H]1C(=O)NCc1ccc(F)cc1Cl` the value was 0.316 µM.

As to `CCN1C(=O)OC[C@H]1C(=O)NCc1ccc(F)cc1Cl`, the IC50 was 0.1 µM. As for `CC1(C(=O)NCc2ccc(Cl)cc2Cl)CCC(=O)N1C1CCC1` (stereo not drawn), the IC50 was 0.1 µM. For `CCN1C(=O)CC[C@H]1C(=O)NCc1cccc(C(F)(F)F)c1F`, the IC50 is 0.0251 µM. With `CCN1C(=O)CC[C@H]1C(=O)NCc1cccc(Cl)c1F` the figure was 0.0794 µM.
